Experimental data reported in article PMC7802075 (ACS Infectious Diseases, 2020).
Where a SMILES comes first, the peptide text is derived from it.

Molecular target: T1, LmjIPCS (inositol phosphorylceramide synthase from L. major) (Leishmania major, UniProt E9AFX2)
T1 sequence (E9AFX2 1-338): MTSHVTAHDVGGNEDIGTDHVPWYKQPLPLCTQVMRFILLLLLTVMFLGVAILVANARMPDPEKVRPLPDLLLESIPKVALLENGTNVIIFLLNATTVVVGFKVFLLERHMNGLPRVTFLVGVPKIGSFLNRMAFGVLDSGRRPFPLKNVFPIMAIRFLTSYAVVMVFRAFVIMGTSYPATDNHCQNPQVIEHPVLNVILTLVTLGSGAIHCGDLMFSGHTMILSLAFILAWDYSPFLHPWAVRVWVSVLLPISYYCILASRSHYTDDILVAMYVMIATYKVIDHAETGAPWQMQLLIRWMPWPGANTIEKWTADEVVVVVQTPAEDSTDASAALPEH
Test: biochemical
Assay type: biochemical
Set-up: inhibition: dose or concentration left out as unconfirmed
Conditions: not given

Row | Compound | 20mM inhibition LmjIPCS
1 | COc1ccc2[nH]cc(CCN)c2c1 [MEXAMINE] | 25%
2 | Nc1c2c(nc3ccccc13)CCCC2 [9-AMINO-1,2,3,4-TETRAHYDROACRIDINE] | 13%
3 | CC[C@@H](CO)NC(=O)[C@@H]1C=C2c3cccc4[nH]cc(c34)C[C@H]2N(C)C1 [METHYLERGONOVINE] | 35%
4 | N=C(N)NC(=O)c1nc(Cl)c(N)nc1N [AMILORIDE] | 52%
5 | Oc1c(Cl)cc(Cl)c(Cl)c1Cc1c(O)c(Cl)cc(Cl)c1Cl [HEXACHLOROPHENE] | 41%
6 | CC(=O)Oc1ccc(C(c2ccc(OC(C)=O)cc2)c2ccccn2)cc1 [BISACODYL] | 48%
7 | CCCCC1C(=O)N(c2ccccc2)N(c2ccc(O)cc2)C1=O (centres unmarked) [OXYPHENBUTAZONE] | 45%
8 | CC(C)Cn1c(=O)n(C)c(=O)c2[nH]cnc21 [3-ISOBUTYL-1-METHYLXANTHINE] | 11%
9 | CC1=NN(c2ccccc2)C(=O)C1 [3-METHYL-1-PHENYL-2-PYRAZOLIN-5-ONE] | 4.33%
10 | CC(=O)O.CNC(=N)NCCC[C@H](N)C(=O)O [Ng-METHYL-L-ARGININE ACETATE] | 0.168%
11 | CC(C)C[C@H](N)C(=O)N[C@@H](C)C(=O)O [L-LEUCYL-L-ALANINE] (H-Leu-Ala-OH) | 5.46%
12 | Nc1ccncc1 [AMINOPYRIDINE] | -4.7%
13 | Clc1cccc(Cl)c1N=C1NCCN1 [CLONIDINE] | 43%
14 | CCOC(=O)C1=C(C)NC(C)=C(C(=O)OC)C1c1cccc([N+](=O)[O-])c1 (centres unmarked) [NITRENDIPINE] | 39%
15 | CCCCCCCCCCC[C@@H](C[C@@H]1OC(=O)[C@H]1CCCCCC)OC(=O)[C@H](CC(C)C)NC=O [ORLISTAT] | 66%
16 | C[C@H](N)[C@H](O)c1cccc(O)c1 [METARAMINOL] | 58%
17 | CC(C)=CCC[C@]1(C)C=Cc2c(O)c3c(c(CC=C(C)C)c2O1)O[C@]12C(=C[C@@H]4C[C@H]1C(C)(C)O[C@@]2(C/C=C(/C)C(=O)O)C4=O)C3=O [GAMBOGIC ACID] | 58%
18 | N=C(N)N [GUANIDINE] | 20%
19 | O=C(/C=C/c1ccc(O)c(O)c1)O[C@H](Cc1ccc(O)c(O)c1)C(=O)O [ROSMARINIC ACID] | 58%
20 | Cc1ccc(-c2cc(C(F)(F)F)nn2-c2ccc(S(N)(=O)=O)cc2)cc1 [CELECOXIB] | 51%
21 | Cc1cccc(C)c1NC(=O)C1CCCCN1C (centres unmarked) [MEPIVACAINE] | 55%
22 | C[C@]12CCC3c4ccc(OS(=O)(=O)[O-])cc4CCC3C1CC[C@H]2O.[Na+] (some centres unmarked) [ESTRADIOL-3-SULFATE, SODIUM SALT] | 5.4%

Same assay, conditions: NINDS set screen, compound at 20mM (so in the source)

Row | Compound | 20mM inhibition LmjIPCS
23 | N#Cc1c(Cl)c(Cl)c(Cl)c(C#N)c1Cl [TETRACHLOROISOPHTHALONITRILE] | 15%

Same assay, conditions: NINDS set screen, single concentration printed as 20mM

Row | Compound | 20mM inhibition LmjIPCS
24 | CCN(CC)CCOC(=O)C(c1ccccc1)c1ccccc1 [ADIPHENINE] | 51%
25 | N#Cc1ccc2c(c1)N(CCCN1CCC(O)CC1)c1ccccc1S2 [PERICIAZINE] | 52%
26 | CC[C@H](c1ccc(O)cc1)[C@@H](CC)c1ccc(O)cc1 [HEXESTROL] | 34%
27 | CN1CCc2cccc3c2[C@H]1Cc1ccc(O)c(O)c1-3 [APOMORPHINE] | 47%

Same assay, conditions: NINDS set screen; read-out: inhibition LmjIPCS

Row | Compound | inhibition
28 | CCCCOC(=O)c1ccc(N)cc1 [BUTAMBEN] | 14%
29 | N[C@@H](CCC(=O)N[C@@H](CSC(CC(=O)O)C(=O)O)C(=O)NCC(=O)O)C(=O)O (stereo partly drawn) [S-(1,2-DICARBOXYETHYL)GLUTATHIONE] | 14%
30 | CN1CCN(CC/C=C2/c3ccccc3Sc3ccc(S(=O)(=O)N(C)C)cc32)CC1 [THIOTHIXENE] | -24%
31 | CCCCCCCC/C=C/CCCCCCCCOP(=O)([O-])OCC[N+](C)(C)C [ELAIDYLPHOSPHOCHOLINE] | -7%
32 | CNC1(C)C2CCC(C2)C1(C)C (centres unmarked) [MECAMYLAMINE] | 17%
33 | COc1cc(C(=O)NCc2ccc(OCCN(C)C)cc2)cc(OC)c1OC [TRIMETHOBENZAMIDE] | 28%
34 | O=C(O)c1cn(-c2ccc(F)cc2)c2cc(N3CCNCC3)c(F)cc2c1=O [SARAFLOXACIN] | 18%
35 | O=C(O)C1=CCCNC1 [GUVACINE] | 14%
36 | C=CCSCC1Nc2cc(Cl)c(S(N)(=O)=O)cc2S(=O)(=O)N1 (centres unmarked) [ALTHIAZIDE] | 11%
37 | CCOc1ccc(Cc2nccc3cc(OCC)c(OCC)cc23)cc1OCC [ETHAVERINE] | -7%
38 | Cc1cc(C)cc(OCC2CNC(=O)O2)c1 (centres unmarked) [METAXALONE] | -4.75%

Same assay, conditions: read-out: 20mM inhibition LmjIPCS

Row | Compound | inhibition at 20000 µM
39 | O=c1cccc2n1C[C@@H]1CNC[C@H]2C1 [CYTISINE] | 9%
40 | C[C@@H]1O[C@@H](O[C@H]2[C@H](Oc3cc(O)c4c(c3)O[C@H](c3ccc(O)cc3)CC4=O)O[C@H](CO)[C@@H](O)[C@@H]2O)[C@H](O)[C@H](O)[C@H]1O [NARINGIN] | 4.67%
41 | COC(=O)C1=CCCN(C)C1 [ARECOLINE] | -3.74%
42 | CC(=O)NS(=O)(=O)c1ccc(N)cc1 [SULFACETAMIDE] | -1.63%
43 | O=C(O)c1cccnc1 [NIACIN] | 15%
44 | CN(C)[C@@H]1C(O)=C(C(N)=O)C(=O)[C@@]2(O)C(O)=C3C(=O)c4c(O)cccc4[C@@](C)(O)[C@H]3[C@H](O)[C@@H]12 [OXYTETRACYCLINE] | 18%
45 | CC(Cc1ccc(O)cc1)NCC(O)c1cc(O)cc(O)c1 (centres unmarked) [FENOTEROL] | 15%
46 | COc1ccc(-c2oc3c(CC=C(C)C)c(O[C@@H]4O[C@H](CO)[C@@H](O)[C@H](O)[C@H]4O)cc(O)c3c(=O)c2O[C@@H]2O[C@@H](C)[C@H](O)[C@@H](O)[C@H]2O)cc1 [ICARIIN] | 10%
47 | CCN(CC)CC(=O)Nc1c(C)cccc1C [LIDOCAINE] | 2.47%
48 | CC(C)NCC(O)c1cc(O)cc(O)c1 (centres unmarked) [METAPROTERENOL] | 7%
49 | CC(=O)[C@H]1CC[C@H]2[C@@H]3C[C@H](C)C4=CC(=O)CC[C@]4(C)[C@H]3[C@@H](O)C[C@]12C [MEDRYSONE] | 14%
50 | COc1ccccc1OCC(O)CO (centres unmarked) [GUAIFENESIN] | -0.357%
51 | O=C(O)CCCc1ccccc1 [PHENYLBUTYRATE] | 1.15%
52 | CC(C)CC(NC(=O)OCC1c2ccccc2-c2ccccc21)C(=O)O (stereo in doubt) | 12%
53 | CC[C@@]1([C@@H]2O[C@@H]([C@H]3O[C@@](O)(CO)[C@H](C)C[C@@H]3C)C[C@@H]2C)CC[C@H]([C@]2(C)CC[C@]3(C[C@H](O)[C@@H](C)[C@@H]([C@@H](C)[C@@H](OC)[C@H](C)C(=O)O)O3)O2)O1 [MONENSIN] | 0.265%
54 | CC1(C)O[C@@H]2C[C@H]3[C@@H]4C[C@H](F)C5=CC(=O)CC[C@]5(C)[C@H]4[C@@H](O)C[C@]3(C)[C@]2(C(=O)CO)O1 [FLURANDRENOLIDE] | -15%
55 | NC(Cn1ccc(=O)c(O)c1)C(=O)O (centres unmarked) [MIMOSINE] | 3%
56 | C=C1[C@@H]2CC[C@H]3[C@]4(C)C[C@H](O[C@@H]5O[C@H](CO)[C@@H](OS(=O)(=O)O)[C@H](OS(=O)(=O)O)[C@H]5OC(=O)CC(C)C)C[C@@H](C(=O)O)[C@H]4CC[C@]3(C2)[C@H]1O [ATRACTYLOSIDE] | 18%
57 | C[C@@H]1O[C@@H](O[C@H]2CC[C@]3(C=O)[C@H]4CC[C@]5(C)[C@@H](C6=CC(=O)OC6)CC[C@]5(O)[C@@H]4CC[C@]3(O)C2)[C@H](O)[C@H](O)[C@H]1O [CONVALLATOXIN] | 16%
58 | CCn1cc(C(=O)O)c(=O)c2ccc(C)nc21 [NALIDIXIC ACID] | -11%
59 | CN[C@@H]1[C@H](O[C@H]2[C@H](O[C@H]3[C@H](O)[C@@H](O)[C@H](NC(=N)N)[C@@H](O)[C@@H]3NC(=N)N)O[C@@H](C)[C@]2(O)CO)O[C@@H](CO)[C@H](O)[C@H]1O [DIHYDROSTREPTOMYCIN] | 12%
60 | NC(=O)c1ccc(N)nc1 [6-AMINONICOTINAMIDE] | 7.54%
61 | CN1C(=O)CCS(=O)(=O)C1c1ccc(Cl)cc1 (centres unmarked) [CHLORMEZANONE] | -1.07%
62 | CC1(C)NC(=O)N(c2ccc([N+](=O)[O-])c(C(F)(F)F)c2)C1=O [NILUTAMIDE] | 4%

Same assay, conditions: read-out: inhibition LmjIPCS

Row | Compound | inhibition
63 | CCCC(=O)Nc1ccc(OCC(O)CNC(C)C)c(C(C)=O)c1 (centres unmarked) [ACEBUTOLOL] | -2.11%
64 | COc1cc(NS(=O)(=O)c2ccc(N)cc2)nc(OC)n1 [SULFADIMETHOXINE] | 15%
65 | O=C1NC(=O)C(c2ccccc2)(c2ccccc2)N1 [PHENYTOIN] | 14%
66 | Nc1ncn([C@@H]2O[C@H](CO)[C@@H](O)[C@H]2O)c(=O)n1 [AZACITIDINE] | 12%
67 | OCCN1CCN(CCCN2c3ccccc3Sc3ccc(Cl)cc32)CC1 [PERPHENAZINE] | 0.226%
68 | Cc1cnc(NC(=O)C2=C(O)c3ccccc3S(=O)(=O)N2C)s1 [MELOXICAM] | 11%
69 | CC1Cc2ccccc2N1NC(=O)c1ccc(Cl)c(S(N)(=O)=O)c1 (centres unmarked) [INDAPAMIDE] | 5%
70 | CCCCC(=O)N(Cc1ccc(-c2ccccc2-c2nnn[nH]2)cc1)[C@H](C(=O)O)C(C)C | 20%
71 | NS(=O)(=O)c1cc2c(cc1Cl)NC(C(Cl)Cl)NS2(=O)=O (centres unmarked) [TRICHLORMETHIAZIDE] | 20%
72 | COc1cc2c(cc1OC)-c1cc3ccc(OC)c(OC)c3c[n+]1CC2 [PALMATINE CHLORIDE] | 16%

Same assay, conditions: screening of NINDS set, sheet Screen 1; read-out: inhibition LmjIPCS

Row | Compound | inhibition
73 | CCCc1cc(C(N)=S)ccn1 [PROTHIONAMIDE] | 9%

Same assay, conditions: single concentration 20mM as printed; screening of NINDS set, sheet Screen 1

Row | Compound | 20mM inhibition LmjIPCS
74 | NCCCS(=O)(=O)O [3-AMINOPROPANESULPHONIC ACID] | 3.28%
